Where a chain is given by its changes, count along the chain named. Positions of bridges follow the written chain, without caps; N, C: chain ends. Non-standard residues stand in square brackets, D forms with d. Residues, ends and D or L forms follow the SMILES beside them.

The values that follow come from article PMC11808397, “Development of selective nanomolar cyclic peptide ligands as GBA1 enzyme stabilisers” (RSC Chemical Biology, 2025).

The target in assay [1] is T1, recombinant human GBA1 (rhGBA1, Cerezyme) (Homo sapiens, UniProt P04062, R534H).
T1 construct: purchased Cerezyme
T1 sequence (P04062 40-536 R534H): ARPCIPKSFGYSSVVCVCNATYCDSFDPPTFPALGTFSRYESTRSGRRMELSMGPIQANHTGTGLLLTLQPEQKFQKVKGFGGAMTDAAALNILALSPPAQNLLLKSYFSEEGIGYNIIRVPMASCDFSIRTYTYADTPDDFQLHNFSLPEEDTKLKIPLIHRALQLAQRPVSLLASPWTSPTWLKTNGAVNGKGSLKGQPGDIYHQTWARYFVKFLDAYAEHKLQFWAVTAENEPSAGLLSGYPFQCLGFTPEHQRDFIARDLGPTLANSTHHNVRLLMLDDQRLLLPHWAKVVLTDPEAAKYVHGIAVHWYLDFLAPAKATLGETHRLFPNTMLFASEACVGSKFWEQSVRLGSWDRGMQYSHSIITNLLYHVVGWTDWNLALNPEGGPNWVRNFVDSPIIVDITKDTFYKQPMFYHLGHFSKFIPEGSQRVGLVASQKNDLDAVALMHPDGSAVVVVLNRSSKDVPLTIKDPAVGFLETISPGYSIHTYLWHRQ
As to the kind of experiment: Thermostability of rhGBA1, label-free differential scanning fluorimetry (Tycho NT.6). It counts as binding. Particulars: rhGBA1 at 1 μM, 20 mM HEPES pH 7.0, 100 mM NaCl, 0.5% DMSO, 2 h room temperature; N. D. = not determined due to a lack of stabilisation effect. Background: Differential scanning fluorimetry follows unfolding on heating by fluorescence.
Description: Samples were incubated at room temperature for 2
hours before measurement in the Tycho NT6.
curves were determined in triplicate using the Tycho NT.6 (NanoTemper), according to manufacturer

Assay [2] addresses T2, GBA1 in fibroblast lysates (Homo sapiens, UniProt P04062).
T2 construct: host or cells: human dermal fibroblasts
T2 sequence (P04062 40-536): T1 sequence (P04062 40-536 R534H) with H495R
As to the kind of experiment: GBA1 inhibition in lysates of fibroblasts treated with peptides. Format: cell-based. The settings on record: cells treated with peptides at increasing concentrations for 16 h, washed with PBS and homogenized; 4-MU assay. The procedure:
We further investigated GBA1 inhibition in cells. Human dermal fibroblasts were initially incubated with peptide concentrations ranging from 0.1 μM (from 0.001 μM for L4, D1 and D12) to 100 μM of each cyclic peptide for […]. […] To further confirm the inability of these peptides to cross the cell membrane, we conducted in situ competitive activity-based protein profiling (cABPP) experiments using RAW 264.7 monocyte/macrophage-like cells. […] RAW 264.7 cells were then treated with increasing concentrations of cyclic peptides (0, 0.1, 1, 10, and 100 μM) for 4 hours, followed by exposure to a cell-penetrant Bodipy red broad spectrum GBA activity-based probe (ABP), JJB75[58] at 10 nM for 2 hours (Fig. S5 for chemical structures, ESI ^†). […] This cABPP experiment further confirms that the peptides are unable to cross the cell membrane (Fig. S6, ESI ^†).
Selective Cyclic Peptide Ligands as GBA1 Stabilizers Katzy et al. […]
Table S1. IC50 values for GBA1 inhibition in fibroblast lysates. Cells were treated with the peptides at increasing concentrations for 16 h, washed with PBS and homogenized. Reported values are mean ± standard deviation from 3 technical triplicates. N.D.: not determined.
Peptide GBA1 in fibroblast lysates
(1 picture or pasted object on this page, not shown here) […]
2.6. In situ cell studies
Human fibroblasts (Cambrex-Lonza CC-2511) were cultured in complete DMEM/F12 growth medium supplemented with 10% (v/v) foetal calf serum and 0.1 % (w/v) penicillin/streptomycin at 37 °C and 5% CO2. Cells were seeded in 12-well plates during passage and the incubations were started when cells were 80% - 100% confluent. Peptides were added in 500 µL medium (10 and 50 µM final concentration) and incubated overnight. After incubation cells were washed three times with cold PBS and harvested in 30 µL lysis buffer (25 mM KPi, pH 6,5 supplemented with 0.1% Triton-X 100 (v/v) and protease inhibitor). Lysates were frozen at -80 °C until use. GlcCer and GlcSph lipids were quantified as described below. In parallel, enzyme activity in cell lysates was measured using 3.7 mM 4-methylumbeliferone (4MU)-β-D-glucopyranoside in 150 mM McIlvaine buffer pH 5.2 supplemented with 0.1% bovine serum albumin (BSA) (w/v), 0.1% Triton X-100 (v/v), and 0.2% sodium taurocholate (w/v) as described above (see Table S1). […]
PBS and harvested in ice cold water. Lysates were kept at -80 °C until extraction.
2.7. 2.5. GlcCer and GlcSph lipid analysis
Levels of GlcCer and GlcSph were determined with a modified acidic Bligh & Dyer extraction (Figure 2 and S5).7 Briefly, after addition of internal standards (C17-dh-Ceramide and 13C5-Glucosylsphingosine), lipids were separated in an organic and an aqueous phase. The separated phases were dried under N2 or in a concentrator. The dried organic lower phase was reconstituted in 0.1 M NaOH in MeOH and underwent microwave-assisted deacylation. After neutralization, the samples were dried. Both phases were further extracted and desalted with equal amounts of water and butanol. The butanol phases were taken up to dryness and the lipids were dissolved in MeOH and transferred to MS vials for analysis in a LC-MS/MS system as described previously.7
2.8. Thermostability assays in rhGBA (Cerezyme)
Varying concentrations of peptides were incubated with 1 µM rhGBA1 in 20 mM HEPES pH 7.0 with 100 mM NaCl, with a final DMSO concentration of 0.5 %, for 2 hours at room temperature. Melting

As for `CC(C)C[C@H](NC(=O)[C@@H](NC(=O)[C@H](CCCNC(=N)N)NC(=O)[C@@H]1CSCC(=O)N[C@H](Cc2ccc(O)cc2)C(=O)N[C@@H]([C@@H](C)O)C(=O)N2CCC[C@H]2C(=O)NCC(=O)N[C@@H](Cc2ccc(O)cc2)C(=O)N[C@@H](C(C)C)C(=O)N[C@@H](Cc2ccc(O)cc2)C(=O)N1)C(C)C)C(=O)N[C@@H](CCCCN)C(=O)N[C@@H](Cc1ccc(O)cc1)C(=O)N[C@@H](CS)C(N)=O` [D8] ({CH2CO}-[dY]TPGYVYCRVLKYC-NH2; thioether N-8), the EC50 in assay [1] is 2200 ± 500 nM. Besides, in assay [2], the IC50 is 5160 nM.

As for `CC[C@H](C)[C@@H]1NC(=O)[C@H](CO)NC(=O)[C@H](CS)NC(=O)CNC(=O)CNC(=O)[C@H](CC(C)C)NC(=O)[C@H](Cc2ccc(O)cc2)NC(=O)[C@H](C(C)C)NC(=O)[C@H](CC(C)C)NC(=O)[C@H](CCCNC(=N)N)NC(=O)[C@@H]2CCCN2C(=O)[C@H](Cc2ccc(O)cc2)NC(=O)CSC[C@@H](C(N)=O)NC(=O)[C@H](CCC(=O)O)NC(=O)[C@H](CC(C)C)NC(=O)[C@H](CC(C)C)NC1=O` [L1] ({CH2CO}-YPRLVYLGGCSILLEC-NH2; thioether N-16), the IC50 in assay [2] is 39700 nM.

Consider `CC[C@H](C)[C@H](NC(=O)[C@H](CCCNC(=N)N)NC(=O)[C@@H]1CSCC(=O)N[C@@H](Cc2ccc(O)cc2)C(=O)N[C@@H](C)C(=O)N[C@@H](Cc2ccc(O)cc2)C(=O)N[C@@H](Cc2c[nH]c3ccccc23)C(=O)N[C@@H](Cc2c[nH]c3ccccc23)C(=O)N[C@@H](CC(C)C)C(=O)N1)C(=O)N1CCC[C@H]1C(=O)N[C@@H](Cc1c[nH]c2ccccc12)C(=O)N[C@@H](CC(C)C)C(=O)N[C@@H](CO)C(=O)N[C@H](C(N)=O)C(C)C` [L2] ({CH2CO}-YAYWWLCRIPWLSV-NH2; thioether N-7), for which the EC50 in assay [1] is 2000 ± 500 nM. Besides, the IC50 in assay [2] amounted to 898 nM.

Molecule `CC[C@H](C)[C@@H]1NC(=O)[C@H](Cc2ccc(O)cc2)NC(=O)CSC[C@@H](C(N)=O)NC(=O)[C@H](Cc2c[nH]c3ccccc23)NC(=O)[C@H](CCC(N)=O)NC(=O)[C@H]([C@@H](C)CC)NC(=O)[C@H]([C@@H](C)CC)NC(=O)[C@@H]2CCCN2C(=O)[C@H](C(C)C)NC(=O)[C@H](Cc2ccc(O)cc2)NC(=O)[C@H](Cc2c[nH]c3ccccc23)NC(=O)[C@H](CO)NC1=O` [L6] ({CH2CO}-YISWYVPIIQWC-NH2; thioether N-12) yielded an IC50 in assay [2] of 22300 nM.

Consider `CC(C)C[C@@H]1NC(=O)CNC(=O)[C@H](CC(C)C)NC(=O)[C@@H](Cc2ccc(O)cc2)NC(=O)CSC[C@@H](C(N)=O)NC(=O)[C@H](CO)NC(=O)[C@H](CCCCN)NC(=O)[C@H](CC(C)C)NC(=O)[C@H](Cc2ccccc2)NC(=O)[C@H](CCCNC(=N)N)NC(=O)[C@H](Cc2ccc(O)cc2)NC(=O)[C@H](Cc2c[nH]c3ccccc23)NC1=O` [D12] ({CH2CO}-[dY]LGLWYRFLKSC-NH2; thioether N-12), for which, in assay [1], the EC50 worked out at 1900 ± 400 nM. Half-maximal inhibition in assay [2] (IC50) required 334 nM.

`CC[C@H](C)[C@H](NC(=O)[C@H](CC(C)C)NC(=O)[C@H](Cc1ccc(O)cc1)NC(=O)[C@H](Cc1ccc(O)cc1)NC(=O)[C@@H]1CSCC(=O)N[C@H](Cc2ccc(O)cc2)C(=O)N[C@@H](CCCNC(=N)N)C(=O)N[C@@H](C(C)C)C(=O)N1)C(=O)N[C@H](C(=O)N[C@H](C(=O)N[C@@H](CC(C)C)C(=O)N[C@@H](CC(=O)O)C(=O)N[C@@H](CS)C(N)=O)C(C)C)[C@@H](C)O` [D1] ({CH2CO}-[dY]RVCYYLITVLDC-NH2; thioether N-4) showed a 50% inhibitory concentration (IC50) in assay [2] of 440 nM.

As to `CC(C)C[C@@H]1NC(=O)CNC(=O)[C@H](Cc2ccccc2)NC(=O)[C@H](CC(C)C)NC(=O)[C@@H]2CCCN2C(=O)[C@H](Cc2ccc(O)cc2)NC(=O)CSC[C@@H](C(=O)N2CCC[C@H]2C(=O)N[C@@H](CC(N)=O)C(=O)N[C@@H](Cc2c[nH]c3ccccc23)C(=O)N[C@@H](Cc2ccccc2)C(=O)N2CCC[C@H]2C(=O)N[C@@H](Cc2ccc(O)cc2)C(=O)N[C@@H](CCC(N)=O)C(=O)N[C@@H](CS)C(N)=O)NC(=O)[C@H](CO)NC(=O)[C@H](Cc2ccccc2)NC1=O` [L4] ({CH2CO}-YPLFGLFSCPNWFPYQC-NH2; thioether N-9), the EC50 in assay [1] was found to be 2600 ± 1100 nM. The molecule also returned a half-maximal inhibitory concentration (IC50) in assay [2] of 67 nM.

As a reminder, the EC50 is the concentration at which the effect is half-maximal. Usually IC50 stands for the midpoint of a concentration-inhibition curve. Low values mean greater potency, high ones weaker potency.
